Experimental data: PubChem BioAssay AID1259407 (Chemical Carcinogenesis Research Information System (CCRIS), 2018)
Active and inactive are the calls of the source. The rule behind the calls is not given here.

Test system: CCRIS mutagenicity, Ames/micronucleus/aberration tests
Test: CCRIS mutagenicity studies
[1] = Test System: AMES SALMONELLA TYPHIMURIUM, Strain/Indicator: TA97, Metabolic Activation: HAMSTER, LIVER, S-9, AROCLOR 1254 (10 OR 30%), Method: PREINCUBATION
[2] = Test System: AMES SALMONELLA TYPHIMURIUM, Strain/Indicator: TA97, Metabolic Activation: NONE, Method: PREINCUBATION
[3] = Test System: AMES SALMONELLA TYPHIMURIUM, Strain/Indicator: TA97, Metabolic Activation: RAT, LIVER, S-9, AROCLOR 1254 (10 OR 30%), Method: PREINCUBATION
[4] = Test System: AMES SALMONELLA TYPHIMURIUM, Strain/Indicator: TA98, Metabolic Activation: HAMSTER, LIVER, S-9, AROCLOR 1254 (10 OR 30%), Method: PREINCUBATION
[5] = Test System: AMES SALMONELLA TYPHIMURIUM, Strain/Indicator: TA98, Metabolic Activation: NONE, Method: PREINCUBATION
[6] = Test System: AMES SALMONELLA TYPHIMURIUM, Strain/Indicator: TA98, Metabolic Activation: RAT, LIVER, S-9, AROCLOR 1254 (10 OR 30%), Method: PREINCUBATION
[7] = Test System: AMES SALMONELLA TYPHIMURIUM, Strain/Indicator: TA100, Metabolic Activation: HAMSTER, LIVER, S-9, AROCLOR 1254 (10 OR 30%), Method: PREINCUBATION
[8] = Test System: AMES SALMONELLA TYPHIMURIUM, Strain/Indicator: TA100, Metabolic Activation: NONE, Method: PREINCUBATION
[9] = Test System: AMES SALMONELLA TYPHIMURIUM, Strain/Indicator: TA100, Metabolic Activation: RAT, LIVER, S-9, AROCLOR 1254 (10 OR 30%), Method: PREINCUBATION
[10] = Test System: AMES SALMONELLA TYPHIMURIUM, Strain/Indicator: TA1535, Metabolic Activation: HAMSTER, LIVER, S-9, AROCLOR 1254 (10 OR 30%), Method: PREINCUBATION
[11] = Test System: AMES SALMONELLA TYPHIMURIUM, Strain/Indicator: TA1535, Metabolic Activation: NONE, Method: PREINCUBATION
[12] = Test System: AMES SALMONELLA TYPHIMURIUM, Strain/Indicator: TA1535, Metabolic Activation: RAT, LIVER, S-9, AROCLOR 1254 (10 OR 30%), Method: PREINCUBATION

Structure (SMILES): CI
- mutagenic call (Test System: AMES SALMONELLA TYPHIMURIUM, Strain/Indicator: TA98, Metabolic Activation: NONE, Method: GAS EXPOSURE): inactive; negative
- mutagenic call (Test System: AMES SALMONELLA TYPHIMURIUM, Strain/Indicator: TA98, Metabolic Activation: RAT, LIVER, S-9, PHENOBARBITAL AND BETA--NAPHTHOFLAVONE, Method: GAS EXPOSURE): inactive; negative
- mutagenic call (Test System: AMES SALMONELLA TYPHIMURIUM, Strain/Indicator: TA100, Metabolic Activation: NONE, Method: DESICCATOR): active; positive
- mutagenic call (Test System: AMES SALMONELLA TYPHIMURIUM, Strain/Indicator: TA100, Metabolic Activation: NONE, Method: GAS EXPOSURE): active; positive
- mutagenic call (Test System: AMES SALMONELLA TYPHIMURIUM, Strain/Indicator: TA100, Metabolic Activation: RAT, LIVER, S-9, PHENOBARBITAL AND BETA--NAPHTHOFLAVONE, Method: GAS EXPOSURE): active; positive
- mutagenic call (Test System: AMES SALMONELLA TYPHIMURIUM, Strain/Indicator: TA1535, Metabolic Activation: NONE, Method: GAS EXPOSURE): inactive; negative
- mutagenic call (Test System: AMES SALMONELLA TYPHIMURIUM, Strain/Indicator: TA1535, Metabolic Activation: RAT, LIVER, S-9, PHENOBARBITAL AND BETA--NAPHTHOFLAVONE, Method: GAS EXPOSURE): inactive; negative
- mutagenic call (Test System: AMES SALMONELLA TYPHIMURIUM, Strain/Indicator: TA1535, Metabolic Activation: RAT, LIVER, S-9, Method: SPOT): active; positive
- mutagenic call (Test System: AMES SALMONELLA TYPHIMURIUM, Strain/Indicator: TA1537, Metabolic Activation: NONE, Method: GAS EXPOSURE): inactive; negative
- mutagenic call (Test System: AMES SALMONELLA TYPHIMURIUM, Strain/Indicator: TA1537, Metabolic Activation: RAT, LIVER, S-9, PHENOBARBITAL AND BETA--NAPHTHOFLAVONE, Method: GAS EXPOSURE): inactive; negative
- mutagenic call (Test System: E. COLI, Strain/Indicator: WP2UVRA, Metabolic Activation: NONE, Method: GAS EXPOSURE): inactive; negative
- mutagenic call (Test System: E. COLI, Strain/Indicator: WP2UVRA, Metabolic Activation: RAT, LIVER, S-9, PHENOBARBITAL AND BETA--NAPHTHOFLAVONE, Method: GAS EXPOSURE): inactive; negative
- mutagenic call (Test System: MOUSE LYMPHOMA, Strain/Indicator: L5178Y (TK+/TK-), Metabolic Activation: NONE, Method: SUSPENSION/PLATE): active; positive
- mutagenic call (Test System: MOUSE LYMPHOMA, Strain/Indicator: L5178Y (TK+/TK-), Metabolic Activation: RAT, LIVER, S-9, AROCLOR 1254, Method: SUSPENSION/PLATE): active; positive

Structure (SMILES): CCc1ccccc1O
- mutagenic call [1]: inactive; negative
- mutagenic call [2]: inactive; negative
- mutagenic call [3]: inactive; negative
- mutagenic call [4]: inactive; negative
- mutagenic call [5]: inactive; negative
- mutagenic call [6]: inactive; negative
- mutagenic call [7]: inactive; negative
- mutagenic call [8]: inactive; negative
- mutagenic call [9]: inactive; negative
- mutagenic call [10]: inactive; negative
- mutagenic call [11]: inactive; negative
- mutagenic call [12]: inactive; negative

Structure (SMILES): CCCCCCCCc1ccc(Nc2ccc(CCCCCCCC)cc2)cc1
- mutagenic call (End Point: IN VITRO CHROMOSOMAL ABERRATIONS, Test System: CHINESE HAMSTER LUNG CELLS (CHL), Metabolic Activation: NONE): inactive; negative
- mutagenic call (End Point: IN VITRO CHROMOSOMAL ABERRATIONS, Test System: CHINESE HAMSTER LUNG CELLS (CHL), Metabolic Activation: RAT, LIVER, S-9, KC-400): inactive; negative
- mutagenic call (End Point: IN VITRO CHROMOSOMAL ABERRATIONS, Test System: CHINESE HAMSTER OVARY CELLS (CHO), Metabolic Activation: NONE): inactive; negative
- mutagenic call (End Point: IN VITRO CHROMOSOMAL ABERRATIONS, Test System: CHINESE HAMSTER OVARY CELLS (CHO), Metabolic Activation: RAT, LIVER, S-9, AROCLOR 1254): inactive; negative
- mutagenic call (End Point: IN VITRO CHROMOSOMAL ABERRATIONS, Test System: CHO-LB CELLS, Metabolic Activation: NONE): inactive; negative
- mutagenic call (End Point: IN VITRO CHROMOSOMAL ABERRATIONS, Test System: CHO-LB CELLS, Metabolic Activation: RAT, LIVER, S-9, AROCLOR 1254): inactive; negative
- mutagenic call [1]: inactive; negative
- mutagenic call [2]: inactive; negative
- mutagenic call [3]: inactive; negative
- mutagenic call [4]: inactive; negative
- mutagenic call [5]: inactive; negative
- mutagenic call [6]: inactive; negative
- mutagenic call [7]: inactive; negative
- mutagenic call [8]: inactive; negative
- mutagenic call [9]: inactive; negative
- mutagenic call [10]: inactive; negative
- mutagenic call [11]: inactive; negative
- mutagenic call [12]: inactive; negative
- mutagenic call (Test System: AMES SALMONELLA TYPHIMURIUM, Strain/Indicator: TA1537, Metabolic Activation: HAMSTER, LIVER, S-9, AROCLOR 1254 (30%), Method: PREINCUBATION): inactive; negative
- mutagenic call (Test System: AMES SALMONELLA TYPHIMURIUM, Strain/Indicator: TA1537, Metabolic Activation: NONE, Method: PREINCUBATION): inactive; negative
- mutagenic call (Test System: AMES SALMONELLA TYPHIMURIUM, Strain/Indicator: TA1537, Metabolic Activation: RAT, LIVER, S-9, AROCLOR 1254 (30%), Method: PREINCUBATION): inactive; negative

Structure (SMILES): C=CC1(C)CO1 (stereo not given)
- mutagenic call (End Point: IN VIVO MICRONUCLEUS, Test System: BONE MARROW POLYCHROMATIC ERYTHROCYTES, Species: MOUSE, Strain/Sex: C57/BL/MALE, Route: INTRAPERITONEAL INJECTION): active; positive
- mutagenic call (Test System: AMES SALMONELLA TYPHIMURIUM, Strain/Indicator: TA98, Metabolic Activation: NONE, Method: STANDARD PLATE): inactive; negative
- mutagenic call (Test System: AMES SALMONELLA TYPHIMURIUM, Strain/Indicator: TA100, Metabolic Activation: NONE, Method: STANDARD PLATE): inactive; negative
